Structures can show the parent of a compound that is named as a salt.
Columns and labels:
[1] = tested on: rat spinal nerve ligation model of neuropathic pain; assay: mechanical allodynia (von Frey) in the spinal nerve ligation model of neuropathic pain; assay type: in vivo
From the text: (§1) Under halothane anesthesia, the L5 and L6 spinal nerves were tightly ligated in the manner described previously by Chung et al. (Kim S. H., Chung J. M., An experimental model for peripheral neuropathy produced by segmental spinal nerve ligation in the rat. Pain 1992; 50:355-363.). Briefly, an incision was made on the dorsal portion of the hip, and the muscle was blunt dissected to reveal the spinal processes. The L6 transverse process was removed, and the left L5 and L6 spinal nerves were tightly ligated with 5.0 braided silk suture. The wound was cleaned, the membrane sewn with 4.0 dissolvable Vicryl suture and the skin closed with wound clips.
Implantation of the DRG catheters was performed immediately following nerve ligation, with animals maintained under halothane for the entire procedure (35-40 minutes). Catheters were constructed of PE 20 with small pieces of tygon tubing cemented along the catheter to allow for suture anchoring points during surgery. The left L5 DRG was exposed by removing the posterior articular process of the L5 vertebra. Gelfoam was inserted into the cavity to prevent the catheter from damaging the ganglion. The catheter was sutured to the muscle and fascia, then run subcutaneously to exteriorize between the shoulder blades. Saline was infused into the catheter, and it was heat sealed.
The implantation of i.c.v. cannulae were conducted under sodium pentobarbital (50 mg/kg, i.p. Nembutal) anesthesia with nerve ligation occurring just after the implantation; animals were maintained under anesthesia for the entire procedure (40-45 minutes). Animals were implanted with a 22 gauge guide cannulae (Plastics One, Roanoke Va.) cut to 6 mm. The stereotaxic coordinates from bregma were 1.0 mm posterior, 1.6 mm lateral, and 4.5 ventral (Paxinos G. and Watson C., The rat brain in stereotaxic coordinates. New York: Academic Press, 1997). Three skull screws were attached for stability, and the implant was covered with cranioplastic acrylic.
For i.c.v. (intracerebroventricular) infusion, chlorisondamine (10 μg) was dissolved in 5 μl phosphate buffered saline and infused by syringe pump at a rate of 5 μl/min. The infusion was performed 24 hours prior to testing in order to reduce stress to the animals immediately prior to behavioral testing.
For all other routes of administration including intraperotineal (i.p.), intradermal (i.d.) or onto the DRG, chlorisondamine was dissolved in saline. The final volumes for i.p. injections were 1 ml/kg, for i.d. were 50 μl and for DRG injections were 10 μl. All injections were made by hand held syringe.
For the assessment of neuropathic pain, mechanical allodynia in the affected paw of animals who had undergone spinal nerve ligation was evaluated using von Frey filaments. As described previously (Chaplan et al., Quantitative assessment of tactile allodynia in the rat paw. J Neurosci Meth, 1994; 53:55-62), two weeks following surgery, rats were acclimated to the testing box which was constructed of plexiglass with a wire mesh floor to allow access to the planter surface of the hind paws. Using the Dixons Up-Down method, a baseline level of allodynia was taken with allodynia defined as a withdrawal threshold ≦4 g. Test compounds were then administered and subsequent withdrawal thresholds determined.
For spinal nerve ligation experiments, the timing of antagonist administration depended upon the route of administration. With i.c.v. administration, chlorisondamine or its vehicle was given 24 hours prior to further manipulation. On the day of the experiment, a baseline allodynia score was determined and then A-85380 or its vehicle control was given and measures taken at 15, 30 and 60 minutes post agonist injection. Dose response curves for i.p., i.d. and DRG administration were also determined using this time line. […]

[2] = side effects observed after injection in spinal nerve ligated rats; assay type: in vivo, rat
[3] = tested on: rat paw withdrawal model of acute thermal pain; assay: rat paw withdrawal model of acute thermal pain, normal rats; assay type: in vivo; settings: A-85380 0.75 μmol/kg
From the text: For the assessment of acute pain, a paw thermal stimulator was used to evaluate nociceptive responses to an acute thermal stimulus (Anesthesiology Research Laboratory, Department of Anesthesiology, University of California at San Diego, La Jolla, Calif.). The device and behavioral procedure have been described previously (Hargreaves et al., A new and sensitive method for measuring thermal nociception in cutaneous hyperalgesia, Pain 1988, 32:77-88; Dirig et al., Characterization of variables defining hind paw withdrawal latency evoked by radiant thermal stimuli, J. Neurosci. Meth. 1997; 76:183-191). […] The measured nociceptive response was the latency to withdraw the hind paw when heated by light from a focused projector lamp (current set at 4.8 A). […]
(§2) For acute thermal pain experiments, a baseline withdrawal threshold was determined, and then chlorisondamine or its vehicle was administered. […]
For experiments with repeated measures, i.e. acute thermal pain and mechanical allodynia, data were first analyzed using a two way repeated measures analysis of variance (ANOVA) with two independent factors. For experiments without repeated measures, i.e. formalin, data were first analyzed using a two way ANOVA with two independent factors. […] All post hoc significance was determined using Fishers LSD.

[4] = tested on: formalin model of persistent pain; assay: formalin model of persistent pain, phase two; assay type: in vivo, rat; settings: A-85380 0.75 μmol/kg
Procedure: The formalin test was used as an assessment of persistent pain. The method, described previously (Bannon et al. 1998) is briefly as follows. Following acclimation to the test environment, 50 μl of a 5% formalin solution was injected subcutaneously into the dorsal surface of one of the rear paws. Only phase two, defined as the 20 minute period from 30 to 50 minutes post formalin injection, was scored for nocifensive behaviors including flinching, licking, and biting.
For formalin experiments, chlorisondamine or its vehicle was infused either 24 h or 40-50 minutes prior to further manipulation. A-85380 was then injected and, 5 minutes later, formalin was injected into the paw. Measures were taken between 30 and 50 minutes post formalin injection.
For experiments with repeated measures, i.e. acute thermal pain and mechanical allodynia, data were first analyzed using a two way repeated measures analysis of variance (ANOVA) with two independent factors. For experiments without repeated measures, i.e. formalin, data were first analyzed using a two way ANOVA with two independent factors. If there was a significant interaction of both factors or of both factors and time, subsequent post hoc one way ANOVAs were performed using each treatment combination as an independent group. The difference in paw withdrawal latencies between the affected and unaffected paw of neuropathic animals tested in acute thermal pain was assessed using a paired t-test. All post hoc significance was determined using Fishers LSD.

[5] = tested on: rat paw withdrawal model of acute thermal pain using neuropathic rats; assay: rat paw withdrawal model of acute thermal pain using neuropathic rats; assay type: in vivo; settings: antagonist 0.4 μmol/kg, i.p., A-85380 0.75 μmol/kg
From the text: as §1
For the assessment of acute pain, a paw thermal stimulator was used to evaluate nociceptive responses to an acute thermal stimulus (Anesthesiology Research Laboratory, Department of Anesthesiology, University of California at San Diego, La Jolla, Calif.). […] The measured nociceptive response was the latency to withdraw the hind paw when heated by light from a focused projector lamp (current set at 4.8 A). […]
as §2
To address this concern, neuropathic rats were assessed in the acute thermal model of paw withdrawal. […]

In the case of C[N+](C)(C)CCCCCC[N+](C)(C)C [Hexamethonium, hexamethonium], the “effect of systemically administered antagonist on A-85380 induced anti-allodynia” value ([1]; antagonist 19 μmol/kg, i.p. 30 minutes prior, A-85380 0.75 μmol/kg, i.p.) was “blocked”.

With O=C(NO)c1cncc(N2C[C@H]3CNC[C@H]32)c1 [A-420503, (IR, 5S) 5-(3,6-diazabicyclo [3.2.0]hept-6-yl)-N-hydroxy-nicotinamide] the “anti-allodynia at the DRG” value ([1]; 4.77 μmol/kg, i.p.) was “significant anti-allodynia”, the “anti-allodynia when injected i.p.” value ([1]; 62 μmol/kg, i.p.) was “significant anti-allodynia” and the “effect of antagonist pretreatment on the compound's effects at the DRG” value ([1]; pretreatment with an NMR antagonist) was “blocked”. For the same compound, the “side effects when injected i.p.” value ([2]; 62 μmol/kg, i.p.) was “without any notable side effects”.

With CNC1(C)C2CCC(C2)C1(C)C (stereo not shown) [Mecamylamine, mecamylamine hydrochloride] the “effect of antagonist pretreatment on A-85380 induced anti-allodynia” value ([1]; antagonist 1 μmol/kg, i.p. 30 minutes prior, A-85380 0.75 μmol/kg, i.p.) was “completely blocked” and the “effect of antagonist on prostration and ataxia following A-85380 injection” value ([2]; antagonist 1 μmol/kg, i.p. 30 minutes prior to A-85380) was “blocked the prostration and ataxia”.

In the case of Cl.Cl.c1cncc(OC[C@@H]2CCN2)c1 [A-85380, 3-(2(S)-azetidinylmethoxy)pyridine dihydrochloride], the “duration of anti-allodynia after DRG infusion” value ([1]; 10 μg onto the L5 DRG) was 15 min, the “duration of anti-allodynia after DRG infusion” value ([1]; 20 μg onto the L5 DRG) was 30 min and the “anti-allodynia after ipsalateral paw injection” value ([1]; 10, 20 and 50 μg/rat, i.d., affected paw, predominately at 15 minutes) was “only the 50 μg dose of A-85380 had an anti-allodynic effect”. For the same compound, the “anti-allodynia after contralateral paw injection” value ([1]; 10, 20 and 50 μg/rat, i.d., unaffected paw, predominately at 15 minutes) was “all three doses of A-85380 induced a significant anti-allodynia”, the “anti-allodynia when infused onto the L5 DRG” value ([1]; 10 and 20 μg onto the L5 DRG on the side of the ligation) was “significant anti-allodynia” and the “potency to increase paw withdrawal threshold, DRG compared with i.p. and i.d. administration” value ([1]; i.d. and DRG doses converted to equivalent systemic dose, fifteen-minute time point) was “decidedly more potent when administered directly onto the DRG”. For the same compound, the “anti-allodynia (paw withdrawal threshold), systemic administration” value ([1]; i.p., multiple doses, 15, 30 and 60 minutes) was “dose dependent anti-allodynia”, the “behaviors induced immediately following injection” value ([2]; A-85380 0.5-1.0 μmol/kg, i.p.) was “prostration and ataxia” and the “time point by which prostration and ataxia abated” value ([2]; A-85380 0.5-1.0 μmol/kg, i.p.) was no more than 15 min. The “antinociception (increase in paw withdrawal latency)” value ([3]; i.p.) was “antinociceptive action” and the “analgesia (decrease in flinches), phase two of formalin test” value ([4]; i.p.) was “analgesic effects”.

For C[N+](C)(C)CC[N+]1(C)Cc2c(Cl)c(Cl)c(Cl)c(Cl)c2C1 [chlorisondamine, chlorisondamine diiodide], the “effect of systemically administered antagonist on A-85380 induced anti-allodynia” value ([1]; antagonist 0.4 μmol/kg, i.p. 30 minutes prior, A-85380 0.75 μmol/kg, i.p.) was “completely blocked”, the “effect of systemic antagonist on anti-allodynia induced by A-85380 infused onto the DRG” value ([1]; antagonist 0.4 μmol/kg, i.p. 30 minutes prior, A-85380 20 μg onto DRG) was “completely blocked” and the “effect of i.c.v. antagonist on A-85380 induced anti-allodynia” value ([1]; antagonist 10 μg i.c.v. 24 hours prior, A-85380 0.75 μmol/kg, i.p.) was “completely blocked”. For the same compound, the “effect of antagonist on A-85380 induced antinociception in neuropathic rats” value [5] was “did not alter”, the “effect of antagonist pretreatment on the antinociceptive action of A-85380” value ([3]; antagonist 0.4 μmol/kg, i.p. 30 minutes prior) was “no effect” and the “effect of systemically administered antagonist on A-85380-induced analgesia” value ([4]; antagonist 0.4 μmol/kg, i.p. 40-50 minutes prior to formalin) was “no significant attenuation”. The “effect of i.c.v. antagonist on A-85380-induced analgesia” value ([4]; antagonist 10 μg i.c.v. 24 hours prior, i.p.) was “completely blocked”.

— US20030216448A1, “Treatment of neuropathic pain” (priority 2002, published 2003)
